Source: patent publication US9394275B2, “Diamide compounds having muscarinic receptor antagonist and BETA2 adrenergic receptor agonist activity” (THERAVANCE RESPIRATORY COMPANY, LLC, priority 2009, dated 2016)
Where a name gives a salt, the structure may show the parent alone.

The molecules below were run on MCh-induced bronchoconstriction in a rat (assay: Einthoven assay: bronchoprotection against methacholine (MCh)-induced bronchoconstriction). Details: Rattus norvegicus, inhaled or nasal, 24 h, read-out: Broncho. at 24 h.
Format: in vivo
Method: This assay measures the ability of a test compound to provide bronchoprotection against methacholine (MCh)-induced bronchoconstriction in a rat. Male Sprague-Dawley rats (Harlan, Indianapolis, Ind.), weighing between 200 g and 350 g, were used for all studies. Test compound or vehicle (sterile deionized water) were dosed by inhalation (IH) over a 10 min period in a pie shaped inhalation chamber (R+S Molds, San Carlos, Calif.) using 5 mL of dosing solution. […] Rats were dosed with 100 μg of test compound unless otherwise indicated. At predetermined time points, rats were anesthetized with an intraperitoneal (IP) injection of 120 mg/kg inactin (thiobutabarbital). A supplemental dose (40 mg/kg, IP) was administered if the animal responded to physical stimuli (e.g. toe pinch). The surgical site was shaved and a 1-2 cm midline incision of the ventral aspect of the neck was made. The jugular vein was isolated and cannulated with a saline-filled polyethylene catheter (PE-50) to allow IV infusion of MCh. Trachea was dissected free and cannulated with a 14G needle (#NE-014, Small Parts, Miami Lakes, Fla.). After placement of the tracheal cannula, each rat was ventilated using a respirator (Model 683, Harvard Apparatus, Inc., MA) set at a stroke volume of 1 mL/100 g body weight (but not exceeding 2.5 mL volume) and a rate of 90 strokes per minute. A T-connector was placed along the respirator expiratory tubing to allow for measurement of changes in ventilation pressure (VP) using a Biopac transducer that was connected to a Biopac […]) pre-amplifier. Body temperature was maintained at 37° C. using a heating pad. Changes in VP were recorded using the Acknowledge Data Collection Software (Santa Barbara, Calif.). Baseline values were collected for at least 2.5 min. Rats were then challenged with non-cumulative intravenous (IV) infusions of 40 and 80 μg/kg MCh. MCh was infused intravenously for 2.5 minutes from a syringe pump (sp210iw, World Precision Instruments, Inc., Sarasota, Fla.) at a rate of 2 mL/kg/min, with a 2 minute interval between the two doses of MCh. Changes in ventilation pressure (cm H2O) in treated animals are expressed as % inhibition of MCh response relative to control animals. Other bronchoconstrictors, such as histamine and acetylcholine, can be used in place of MCh in this assay. Additionally, guinea pigs can be used instead of rats. […] Inhibition greater than or equal to 30 percent at 24 h is indicative of a long duration of action.
`C[C@H](Cc1cccc(CCNC(=O)Cc2ccc(N(C)C(=O)CCN3CCC(OC(=O)Nc4ccccc4-c4ccccc4)CC3)cc2)c1)NC[C@H](O)c1ccc(O)c2[nH]c(=O)ccc12` [Compound I-86, Biphenyl-2-ylcarbamic Acid 1-{2-[(4-{[2-(3-{(R)-2-[(R)-2-Hydroxy-2-(8-hydroxy-2-oxo-1,2-dihydroquinolin-5-yl)ethylamino]propyl}phenyl)-ethylcarbamoyl]methyl}phenyl)methylcarbamoyl]ethyl}piperidin-4-yl Ester Ditrifluoroacetic Acid Salt] was tested, and the inhibition in vivo at 0.1 mg was > 30%.

Same assay, conditions: inhaled or nasal; rat, 100 μg by inhalation, 24 h after administration; read-out: Broncho. at 24 h
With `Cc1ccc(C(=O)Nc2ccc(CCNC[C@H](O)c3ccc(O)c4[nH]c(=O)ccc34)cc2)cc1N(C)C(=O)CCN1CCC(OC(=O)Nc2ccccc2-c2ccccc2)CC1` [Compound I-35] the inhibition in vivo at 0.1 mg was > 30%.

Same assay, conditions: rat, 100 μg by inhalation, 24 h after administration
`Cc1cc(CNC[C@H](O)c2ccc(O)c3[nH]c(=O)ccc23)ccc1NC(=O)CCCN(C)C(=O)CCN1CCC(OC(=O)Nc2ccccc2-c2ccccc2)CC1` [Compound I-2] was tested, and the “Broncho. at 24 h” value was “No”. With `C[C@H](Cc1cccc(CC(=O)NCCCN(C)C(=O)CCN2CCC(OC(=O)Nc3ccccc3-c3ccccc3)CC2)c1)NC[C@H](O)c1ccc(O)c2[nH]c(=O)ccc12` [Compound I-12] the “Broncho. at 24 h” value was “No”. For `CN(CCCCC(=O)Nc1ccc(CNC[C@H](O)c2ccc(O)c3[nH]c(=O)ccc23)cc1)C(=O)CCN1CCC(OC(=O)Nc2ccccc2-c2ccccc2)CC1` [Compound I-14, Biphenyl-2-ylcarbamic Acid 1-(2-{[4-(4-{[(R)-2-hydroxy-2-(8-hydroxy-2-oxo-1,2-dihydroquinolin-5-yl)ethylamino]methyl}phenylcarbamoyl)-butyl]methylcarbamoyl}ethyl)piperidin-4-yl Ester Ditrifluoroacetic Acid Salt], the “Broncho. at 24 h” value was “Yes (Bronchoprotective effect present at 24 h, e.g., ≧30% inhibition of the MCh response at 24 h in the rat Einthoven assay (100 μg))”. In the case of `Cc1cc(NC(=O)CCCCN(C)C(=O)CCN2CCC(OC(=O)Nc3ccccc3-c3ccccc3)CC2)c(C)cc1CNC[C@H](O)c1ccc(O)c2[nH]c(=O)ccc12` [Compound I-18, Biphenyl-2-ylcarbamic Acid 1-(2-{[4-(4-{[(R)-2-Hydroxy-2-(8-hydroxy-2-oxo-1,2-dihydroquinolin-5-yl)ethylamino]methyl}-2,5-dimethylphenylcarbamoyl)butyl]methylcarbamoyl}ethyl)piperidin-4-yl Ester Ditrifluoroacetic Acid Salt], the “Broncho. at 24 h” value was “Yes (Bronchoprotective effect present at 24 h, e.g., ≧30% inhibition of the MCh response at 24 h in the rat Einthoven assay (100 μg))”. In the case of `Cc1cc(CNC[C@H](O)c2ccc(O)c3[nH]c(=O)ccc23)ccc1NC(=O)c1cccc(N(C)C(=O)CCN2CCC(OC(=O)Nc3ccccc3-c3ccccc3)CC2)c1` [Compound I-27], the “Broncho. at 24 h” value was “No”. In the case of `Cc1cc(CNC[C@H](O)c2ccc(O)c3[nH]c(=O)ccc23)ccc1NC(=O)c1ccc(C)c(N(C)C(=O)CCN2CCC(OC(=O)Nc3ccccc3-c3ccccc3)CC2)c1` [Compound I-28], the “Broncho. at 24 h” value was “No”. With `COc1cc(CNC[C@H](O)c2ccc(O)c3[nH]c(=O)ccc23)ccc1NC(=O)c1cccc(N(C)C(=O)CCN2CCC(OC(=O)Nc3ccccc3-c3ccccc3)CC2)c1` [Compound I-29] the “Broncho. at 24 h” value was “No”. For `Cc1cc(NC(=O)c2cccc(N(C)C(=O)CCN3CCC(OC(=O)Nc4ccccc4-c4ccccc4)CC3)c2)c(C)cc1CNC[C@H](O)c1ccc(O)c2[nH]c(=O)ccc12` [Compound I-30], the “Broncho. at 24 h” value was “No”. With `CN(C(=O)CCN1CCC(OC(=O)Nc2ccccc2-c2ccccc2)CC1)c1cccc(C(=O)Nc2cccc(CCNC[C@H](O)c3ccc(O)c4[nH]c(=O)ccc34)c2)c1` [Compound I-32] the “Broncho. at 24 h” value was “No”. For `Cc1ccc(C(=O)Nc2cccc(CCNC[C@H](O)c3ccc(O)c4[nH]c(=O)ccc34)c2)cc1N(C)C(=O)CCN1CCC(OC(=O)Nc2ccccc2-c2ccccc2)CC1` [Compound I-33], the “Broncho. at 24 h” value was “No”. `Cc1ccc(C(=O)Nc2cccc(CC(C)NC[C@H](O)c3ccc(O)c4[nH]c(=O)ccc34)c2)cc1N(C)C(=O)CCN1CCC(OC(=O)Nc2ccccc2-c2ccccc2)CC1` (stereo partly drawn) [Compound I-37] was tested, and the “Broncho. at 24 h” value was “No”. `C[C@H](Cc1cccc(NC(=O)c2cccc(N(C)C(=O)CCN3CCC(OC(=O)Nc4ccccc4-c4ccccc4)CC3)c2)c1)NC[C@H](O)c1ccc(O)c2[nH]c(=O)ccc12` [Compound I-38] was tested, and the “Broncho. at 24 h” value was “No”. `C[C@@H](Cc1cccc(NC(=O)c2cccc(N(C)C(=O)CCN3CCC(OC(=O)Nc4ccccc4-c4ccccc4)CC3)c2)c1)NC[C@H](O)c1ccc(O)c2[nH]c(=O)ccc12` [Compound I-39] was tested, and the “Broncho. at 24 h” value was “No”. `C[C@H](Cc1ccc(NC(=O)c2cccc(N(C)C(=O)CCN3CCC(OC(=O)Nc4ccccc4-c4ccccc4)CC3)c2)cc1)NC[C@H](O)c1ccc(O)c2[nH]c(=O)ccc12` [Compound I-42] was tested, and the “Broncho. at 24 h” value was “No”. In the case of `CC(Cc1cccc(CNC(=O)c2cccc(N(C)C(=O)CCN3CCC(OC(=O)Nc4ccccc4-c4ccccc4)CC3)c2)c1)NC[C@H](O)c1ccc(O)c2[nH]c(=O)ccc12` (stereo partly drawn) [Compound I-44], the “Broncho. at 24 h” value was “No”. `Cc1ccc(C(=O)NCc2cccc(CC(C)NC[C@H](O)c3ccc(O)c4[nH]c(=O)ccc34)c2)cc1N(C)C(=O)CCN1CCC(OC(=O)Nc2ccccc2-c2ccccc2)CC1` (stereo partly drawn) [Compound I-45] was tested, and the “Broncho. at 24 h” value was “No”. In the case of `CC(Cc1cccc(CC(=O)Nc2cccc(N(C)C(=O)CCN3CCC(OC(=O)Nc4ccccc4-c4ccccc4)CC3)c2)c1)NC[C@H](O)c1ccc(O)c2[nH]c(=O)ccc12` (stereo partly drawn) [Compound I-52], the “Broncho. at 24 h” value was “No”. `C[C@@H](Cc1cccc(CCNC(=O)c2ccc(N(C)C(=O)CCN3CCC(OC(=O)Nc4ccccc4-c4ccccc4)CC3)cc2)c1)NC[C@H](O)c1ccc(O)c2[nH]c(=O)ccc12` [Compound I-56] was tested, and the “Broncho. at 24 h” value was “No”. `CN(C(=O)CCN1CCC(OC(=O)Nc2ccccc2-c2ccccc2)CC1)c1ccc(CC(=O)NCc2ccc(CCNC[C@H](O)c3ccc(O)c4[nH]c(=O)ccc34)cc2)cc1` [Compound I-64] was tested, and the “Broncho. at 24 h” value was “No”. `CC(Cc1ccc(CNC(=O)Cc2ccc(N(C)C(=O)CCN3CCC(OC(=O)Nc4ccccc4-c4ccccc4)CC3)cc2)cc1)NC[C@H](O)c1ccc(O)c2[nH]c(=O)ccc12` (stereo partly drawn) [Compound I-66] was tested, and the “Broncho. at 24 h” value was “No”. With `C[C@@H](Cc1cccc(CC(=O)NCc2ccc(N(C)C(=O)CCN3CCC(OC(=O)Nc4ccccc4-c4ccccc4)CC3)cc2)c1)NC[C@H](O)c1ccc(O)c2[nH]c(=O)ccc12` [Compound I-79] the “Broncho. at 24 h” value was “No”. For `CC(Cc1ccc(CC(=O)NCc2ccc(N(C)C(=O)CCN3CCC(OC(=O)Nc4ccccc4-c4ccccc4)CC3)cc2)cc1)NC[C@H](O)c1ccc(O)c2[nH]c(=O)ccc12` (stereo partly drawn) [Compound I-80], the “Broncho. at 24 h” value was “No”.
